Among the data in ChEMBL document CHEMBL2010751, “Synthesis of a novel suppressor of beta-cell apoptosis via diversity-oriented synthesis” (ACS Med Chem Lett, 2011) are Activity, EC50 and inhibition values, retold here.

Assay [1] can be described thus: Inhibition of IL-1beta, IFN-gamma and TNF-alpha-induced apoptosis of rat INS-1E cells assessed as maximum activity to restoring cell viability after 48 hrs by luciferase based CellTiter-Glo assay. The class given is functional. A general note: In ATP-based viability assays light output follows the ATP content of the culture.
A short description of assay [2]: Inhibition of IL-1beta, IFN-gamma and TNF-alpha-induced apoptosis of rat INS-1E cells assessed as restoring cell viability after 48 hrs by luciferase based CellTiter-Glo assay. The class given is functional.
Assay [3] concerns INS-1E. Nature of the assay: Inhibition of IL-1beta, IFN-gamma and TNF-alpha-induced apoptosis of rat INS-1E cells assessed as decrease in nitrite production after 48 hrs by Griess assay. The class given is functional, cell-based. For orientation: The Griess reaction detects nitrite, a stable product of nitric oxide.
For assay [4], the system named is INS-1E. Nature of the assay: Inhibition of IL-1beta, IFN-gamma and TNF-alpha-induced apoptosis of rat INS-1E cells assessed as glucose-stimulated insulin secretion at 5 uM after 48 hrs by ELISA. The assay is classed as functional, cell-based. Background: ELISA stands for enzyme-linked immunosorbent assay.
In assay [5] the test system is INS-1E. The experiment in a line: Inhibition of IL-1beta, IFN-gamma and TNF-alpha-induced apoptosis of rat INS-1E cells assessed as decrease in caspase-3 activity after 48 hrs by luminescence assay. The class given is functional, cell-based.
The test system of assay [6] is INS-1E. The experiment in a line: Inhibition of IL-1beta, IFN-gamma and TNF-alpha-induced apoptosis of rat INS-1E cells assessed as restoration of mitochondrial membrane potential at 0.25 to 5 uM after 48 hrs by JC-1 staining analysis. The assay is classed as functional, cell-based.

The source made the active and inactive calls. The calls are words filed in the database; no cut-off is given here. Bounds are passed on as bounds.

As to `COc1ccc(S(=O)(=O)N(C)C[C@@H]2Oc3c(NC(=O)NC4CCCc5ccccc54)cccc3C(=O)N([C@@H](C)CO)C[C@H]2C)cc1` (stereo partly drawn), in assay [1], the Activity came to 0%. Moreover, the concentration giving a half-maximal response (EC50) – broadly, the concentration that produces a half-maximal response – in assay [2] is over 20 µM.

`C[C@@H]1CN([C@@H](C)CO)C(=O)c2cccc(NC(=O)Nc3cccc4ccccc34)c2O[C@H]1CN(C)S(=O)(=O)c1ccc(Oc2ccccc2)cc1`: the Activity in assay [1] is on record as 0%. The EC50 in assay [2] was over 20 µM.

Turning to `C[C@@H]1CN([C@@H](C)CO)C(=O)c2cccc(NC(=O)Nc3cccc4ccccc34)c2O[C@H]1CN(C)S(=O)(=O)c1ccc2c(c1)OCCO2`, the inhibition entry in assay [3] and in assay [5] was “Dose-dependent effect” in each case. Moreover, the inhibition result in assay [4] and in assay [6] was “Active” in each case. Further, the Activity in assay [1] amounted to 99%. The 50% effective concentration (EC50) in assay [2] came to 0.78 µM.

Take `COc1ccc(S(=O)(=O)N(C)C[C@@H]2Oc3c(NC(=O)Nc4ccc5occc5c4)cccc3C(=O)N([C@@H](C)CO)C[C@H]2C)cc1`: the Activity in assay [1] is reported as 0%. For the same molecule, the EC50 in assay [2] is over 20 µM.

With `C[C@@H]1CN([C@@H](C)CO)C(=O)c2cccc(NC(=O)Nc3cccc(Cl)c3Cl)c2O[C@H]1CN(C)S(=O)(=O)c1ccc2c(c1)OCCO2`, the Activity in assay [1] came out at 0%. The half-maximal effective concentration (EC50) in assay [2] was over 20 µM.

For the molecule `COc1ccc(S(=O)(=O)N(C)C[C@@H]2Oc3c(NC(=O)Nc4cccc5ccccc45)cccc3C(=O)N([C@@H](C)CO)C[C@H]2C)cc1C`, in assay [1], the Activity was determined as 76%. In assay [2], the 50% effective concentration (EC50) stood at 3.5 µM.

On to `COc1ccc(S(=O)(=O)N(C)C[C@@H]2Oc3c(NC(=O)Nc4cccc5ccccc45)cccc3C(=O)N([C@@H](C)CO)C[C@H]2C)cc1`, for which the Activity in assay [1] is 62%. For the same molecule, in assay [2], the concentration for a half-maximal effect (EC50) came to 4.89 µM.

As for `COc1ccc(S(=O)(=O)N(C)C[C@@H]2Oc3c(NC(=O)Nc4cccc5c4CCCC5)cccc3C(=O)N([C@@H](C)CO)C[C@H]2C)cc1`, the Activity in assay [1] is 0%. The concentration giving a half-maximal response (EC50) in assay [2] was over 20 µM.

As to `COc1cccc(S(=O)(=O)N(C)C[C@@H]2Oc3c(NC(=O)Nc4cccc5ccccc45)cccc3C(=O)N([C@@H](C)CO)C[C@H]2C)c1`, the Activity in assay [1] was found to be 0%. Also, in assay [2], the 50% effective concentration (EC50) was over 20 µM.

For the molecule `COc1ccccc1S(=O)(=O)N(C)C[C@@H]1Oc2c(NC(=O)Nc3cccc4ccccc34)cccc2C(=O)N([C@@H](C)CO)C[C@H]1C`, the Activity in assay [1] was determined as 0%. Moreover, the concentration giving a half-maximal response (EC50) in assay [2] is over 20 µM.

With `COc1ccc(S(=O)(=O)N(C)C[C@@H]2Oc3c(NC(=O)Nc4cccc5ccccc45)cccc3C(=O)N(C(C)C)C[C@H]2C)cc1`, the Activity in assay [1] is reported as 76%. In assay [2], the concentration for a half-maximal effect (EC50) worked out at 3.06 µM.

For `CC(C)N1C[C@@H](C)[C@H](CN(C)S(=O)(=O)c2ccc3c(c2)OCCO3)Oc2c(NC(=O)Nc3cccc4ccccc34)cccc2C1=O`, the Activity in assay [1] is recorded as 89%. The EC50 in assay [2] came to 2.79 µM.
